Data: ChEMBL document CHEMBL3632561, “Probing the structural requirements of non-electrophilic naphthalene-based Nrf2 activators” (Eur J Med Chem, 2015)
Activity calls are given as the source filed them. The rule behind the calls is not given here.

Tests used:
Assay type in all cases: cell-based
[1] = target: T1, Nuclear factor erythroid 2-related factor 2 (Mus musculus) (UniProt Q60795); test: Activation of NRF2 in mouse MLE12 cells assessed as increase in NRF2 level at 10 uM incubated for 6 hrs by immunoblot assay
T1 sequence (whole entry): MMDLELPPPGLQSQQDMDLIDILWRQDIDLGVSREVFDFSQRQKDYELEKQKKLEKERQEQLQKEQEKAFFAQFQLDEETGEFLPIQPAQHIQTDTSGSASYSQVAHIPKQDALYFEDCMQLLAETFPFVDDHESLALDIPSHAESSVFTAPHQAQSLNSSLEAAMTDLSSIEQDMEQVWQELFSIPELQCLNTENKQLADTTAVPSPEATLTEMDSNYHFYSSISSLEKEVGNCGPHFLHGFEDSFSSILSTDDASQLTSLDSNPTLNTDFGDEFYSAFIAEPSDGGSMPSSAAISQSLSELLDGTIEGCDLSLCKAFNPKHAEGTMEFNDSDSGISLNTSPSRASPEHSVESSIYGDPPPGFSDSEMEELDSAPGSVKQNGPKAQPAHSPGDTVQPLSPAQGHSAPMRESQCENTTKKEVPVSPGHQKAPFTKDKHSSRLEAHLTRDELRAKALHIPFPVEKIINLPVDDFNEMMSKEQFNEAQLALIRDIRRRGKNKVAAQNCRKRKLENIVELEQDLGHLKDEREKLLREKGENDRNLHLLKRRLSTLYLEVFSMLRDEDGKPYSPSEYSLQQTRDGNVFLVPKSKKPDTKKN

[2] = target: T1, Nuclear factor erythroid 2-related factor 2 (Mus musculus); test: Activation of NRF2 in mouse MLE12 cells assessed as induction of HMOX1 expression at 10 uM incubated for 6 hrs by immunoblot assay
[3] = target: T1, Nuclear factor erythroid 2-related factor 2 (Mus musculus); test: Activation of NRF2 in mouse MLE12 cells assessed as induction of NQO1 expression at 10 uM incubated for 6 hrs by immunoblot assay

Activity [1] | Activity [2] | Activity [3] | SMILES
Active | Active |  | COc1ccc(S(=O)(=O)N(CC(=O)O)c2ccc(N(CC(=O)O)S(=O)(=O)c3ccc(OC)cc3)c3ccccc23)cc1
Active | Active |  | COc1ccc(S(=O)(=O)Nc2ccc(NS(=O)(=O)c3ccc(OC)cc3)c3ccccc23)cc1
Active | Active |  | CCOC(=O)CN(c1ccc(NS(=O)(=O)c2ccc(OC)cc2)c2ccccc12)S(=O)(=O)c1ccc(OC)cc1
 | inactive | inactive | COc1ccc(S(=O)(=O)Nc2ccc(N(CC(=O)O)S(=O)(=O)c3ccc(OC)cc3)c3ccccc23)cc1
